Experimental data from US20240018102A1, “COMPOUNDS AND COMPOSITIONS FOR TREATING CONDITIONS ASSOCIATED WITH LPA RECEPTOR ACTIVITY” (Lhotse Bio, Inc., priority 2020, published 2024).

Target: T1, human LPA1 (Homo sapiens, UniProt Q92633)
T1 construct: expressed in transfected cells; host or cells: CHO-K1
Experiment: In vitro LPA1 functional antagonist assay (calcium mobilization, FLIPR)
Format: cell-based
Details: CHO-K1 cells overexpressing human LPA1; Oleoyl LPA challenge; calcium mobilization on FLIPR Tetra
Method: In Vitro LPA1 Functional Antagonist Assay
CHO-K1 cells overexpressing human LPA1 were seeded in a total volume of 20 μL into black-walled, clear-bottom, Poly-D-lysine coated 384-well microplates and incubated at 37° C. for the appropriate time prior to testing. Assays were performed in 1× Dye Loading Buffer consisting of 1× Dye, 1× Additive A and 2.5 mM Probenecid in HBSS/20 mM Hepes. Probenicid was prepared fresh. Cells were loaded with dye prior to testing. Media was aspirated from cells and replaced with […] Dye Loading Buffer. Cells were incubated for 30-60 minutes at 37° C. After dye loading, cells were removed from the incubator and 10 μL 3× test compound was added. Cells were incubated for 30 minutes at room temperature in the dark to equilibrate plate temperature followed by Oleoyl LPA challenge at the 0.018 M. Compound antagonist activity was measured on a FLIPR Tetra (MDS). Calcium mobilization was monitored for 2 minutes and 10 μL Oleoyl LPA in HBSS/20 mM Hepes was added to the cells 5 seconds into the assay. Compound activity was analyzed using CBIS data analysis suite (ChemInnovation, CA). Percentage inhibition is calculated using the following formula:
% Inhibition=100%×(1−(mean RFU of test sample−mean RFU of vehicle control)/(mean RFU of LPA control−mean RFU of vehicle control)).

T1 sequence (Q92633 whole entry): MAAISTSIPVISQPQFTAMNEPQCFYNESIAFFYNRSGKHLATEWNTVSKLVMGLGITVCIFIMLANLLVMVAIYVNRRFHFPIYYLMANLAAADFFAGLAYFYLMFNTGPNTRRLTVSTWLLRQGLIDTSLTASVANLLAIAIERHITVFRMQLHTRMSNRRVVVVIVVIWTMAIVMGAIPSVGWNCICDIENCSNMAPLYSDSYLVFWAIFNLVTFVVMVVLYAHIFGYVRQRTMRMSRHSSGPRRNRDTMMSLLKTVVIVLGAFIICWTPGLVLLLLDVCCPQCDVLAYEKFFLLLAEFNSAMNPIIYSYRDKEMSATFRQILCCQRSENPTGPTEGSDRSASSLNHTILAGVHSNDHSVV

| SMILES | IC50 |
| --- | --- |
| COC(=O)c1cn(C[C@H](OCC2CCC2)[C@H](O)c2cc(OC)c(C)c(OC)c2)cc1CC(=O)O [Compound 117a] | 61.9 nM |
| COc1cc([C@@H](O)[C@H](Cc2nc3cc(C(=O)O)ccc3[nH]2)OCC2CCC2)cc(OC)c1C [Compound 131a, 2-((2S,3R)-2-(cyclobutylmethoxy)-3-(3,5-dimethoxy-4-methylphenyl)-3-hydroxypropyl)-1H-benzo[d]imidazole-5-carboxylic acid] | > 10000 nM |
| CCOC(=O)c1cn(C[C@H](OC2CCCC2)[C@H](O)c2cc(OC)c(C)c(OC)c2)cc1CC(=O)O [Compound 143] | 7.66 nM |
| N#Cc1cc([C@@H](O)[C@H](Cn2cc3cccc(C(=O)O)c3n2)OC2CCCC2)ccc1Cl [Compound 134] | > 10000 nM |
| COC(=O)c1cn(C[C@H](OC2Cc3ccccc3C2)[C@H](O)c2cc(OC)c(C)c(OC)c2)cc1CC(=O)O [Compound 103a, 2-(1-((2S,3R)-2-((2,3-dihydro-1H-inden-2-yl)oxy)-3-(3,5-dimethoxy-4-methylphenyl)-3-hydroxypropyl)-4-(methoxycarbonyl)-1H-pyrrol-3-yl)acetic acid] | 4.74 nM |
| CCOc1cc([C@@H](O)[C@H](Cn2cc3cccc(C(=O)O)c3n2)OC2CCCC2)ccc1C [Compound 141] | 193 nM |
| COc1cc([C@@H](O)[C@H](Cc2nc(CC(=O)O)cs2)OC2CCCC2)cc(OC)c1C [Compound 112a, 2-(2-((2S,3R)-2-(cyclopentyloxy)-3-(3,5-dimethoxy-4-methylphenyl)-3-hydroxypropyl)thiazol-4-yl)acetic acid] | 56.1 nM |
| COc1cc([C@@H](O)[C@H](Cc2nc3c(C(=O)O)cccc3[nH]2)OC2CCCC2)cc(OC)c1C [Compound 142] | > 10000 nM |
| COc1cc([C@@H](O)[C@H](Cc2nc3cc(CC(=O)O)ccc3[nH]2)OC2CCCC2)cc(OC)c1C [Compound 111a, 2-(2-((2S,3R)-2-(cyclopentyloxy)-3-(3,5-dimethoxy-4-methylphenyl)-3-hydroxypropyl)-1H-benzo[d]imidazol-5-yl)acetic acid] | > 10000 nM |

Results, then the compound that gave them:

| IC50 | SMILES |
| --- | --- |
| 1540 nM | COC(=O)c1cn(C[C@H](OCCc2ccccc2)[C@@H](O)c2cc(OC)c(C)c(OC)c2)cc1CC(=O)O [Compound 132] |
| > 10000 nM | COc1cc([C@H](O)[C@H](Cn2cc3cccc(C(=O)O)c3n2)OC2CCCC2)ccc1F [Compound 138] |
| 49 nM | COc1cc([C@H](O)[C@H](Cn2cc3cccc(C(=O)O)c3n2)OCCc2ccccc2)cc(OC)c1C [Compound 105b, 2-((2S,3S)-3-(3,5-dimethoxy-4-methylphenyl)-3-hydroxy-2-phenethoxypropyl)-2H-indazole-7-carboxylic acid] |
| 3.05 nM | COc1cc([C@@H](O)[C@H](Cn2cc3cccc(C(=O)O)c3n2)OC2CCCC2)cc(OC)c1C [Compound 108a, 2-((2S,3R)-2-(cyclopentyloxy)-3-(3,5-dimethoxy-4-methylphenyl)-3-hydroxypropyl)-2H-indazole-7-carboxylic acid] |
| 72.6 nM | COc1cc([C@@H](O)[C@H](Cn2cc3cccc(C(=O)O)c3n2)OC(C)C)cc(OC)c1C [Compound 145] |
| 5.24 nM | COC(=O)c1cn(C[C@H](OCCc2ccccc2)[C@H](O)c2cc(OC)c(C)c(OC)c2)cc1CC(=O)O [Compound 104a, 2-(1-((2S,3R)-3-(3,5-dimethoxy-4-methylphenyl)-3-hydroxy-2-phenethoxypropyl)-4-(methoxycarbonyl)-1H-pyrrol-3-yl)acetic acid] |
| 411 nM | COc1cc([C@@H](O)[C@H](Cc2ccc(CC(=O)O)cn2)OCCc2ccccc2)cc(OC)c1C [Compound 106a, 2-(6-((2S,3R)-3-(3,5-dimethoxy-4-methylphenyl)-3-hydroxy-2-phenethoxypropyl)pyridin-3-yl)acetic acid] |
| 26.6 nM | COc1cc([C@@H](O)[C@H](Cn2cc3cccc(C(=O)O)c3n2)OCC2CCC2)cc(OC)c1C [Compound 118a, 2-((2S,3R)-2-(cyclobutylmethoxy)-3-(3,5-dimethoxy-4-methylphenyl)-3-hydroxypropyl)-2H-indazole-7-carboxylic acid] |
| 2.04 nM | COc1cc([C@@H](O)[C@H](Cn2cc3cc(Cl)cc(C(=O)O)c3n2)OC2CCCC2)cc(OC)c1C [Compound 144] |
| 3.35 nM | COc1cc([C@@H](O)C(Cn2cc3cccc(C(=O)O)c3n2)OCCc2ccccc2)cc(OC)c1C (stereo in doubt) [Compound 105a, 2-((2R,3R)-3-(3,5-dimethoxy-4-methylphenyl)-3-hydroxy-2-phenethoxypropyl)-2H-indazole-7-carboxylic acid] |
